{"source": "ChEMBL document CHEMBL1144287", "about": "“Synthesis and antifungal activity of noble 5-arylamino- and 6-arylthio-4,7-dioxobenzoselenazoles” (2005)", "type_in_all_cases": "functional", "key": {"Pichia kudriavzevii": {"tested_on": "Pichia kudriavzevii", "assay": "Minimum inhibitory concentration was measured against Candida krusei ATCC 749 using modified Sabouraud dextrose broth; (a)"}, "Candida tropicalis": {"tested_on": "Candida tropicalis", "assay": "Minimum inhibitory concentration was measured against Candida tropicalis ATCC 28775 using modified Sabouraud dextrose broth; (a)"}, "Aspergillus flavus": {"tested_on": "Aspergillus flavus", "assay": "Minimum inhibitory concentration was measured against Aspergillus flavus KCCM 11899 using modified Sabouraud dextrose broth; (a)"}, "Aspergillus niger": {"tested_on": "Aspergillus niger", "assay": "Minimum inhibitory concentration was measured against Aspergillus niger KCTC 1231 using modified Sabouraud dextrose broth; (a)"}, "Candida albicans": {"tested_on": "Candida albicans", "assay": "Minimum inhibitory concentration was measured against Candida albicans ATCC 10231 using modified Sabouraud dextrose broth; (a)"}}}
{"smiles": "COC1=C(Sc2ccc(C)cc2)C(=O)c2[se]c(C)nc2C1=O", "values": [{"measurement": "MIC", "setting": "Pichia kudriavzevii", "value": 25, "unit": "µg/mL"}, {"measurement": "MIC", "setting": "Candida tropicalis", "value": 6.3, "unit": "µg/mL"}, {"measurement": "MIC", "setting": "Aspergillus flavus", "value": 50, "unit": "µg/mL"}, {"measurement": "MIC", "setting": "Aspergillus niger", "value": 25, "unit": "µg/mL"}, {"measurement": "MIC", "setting": "Candida albicans", "value": 12.5, "unit": "µg/mL"}]}
{"smiles": "COC1=CC(=O)c2[se]c(C)nc2C1=O", "values": [{"measurement": "MIC", "setting": "Pichia kudriavzevii", "value": 25, "unit": "µg/mL"}, {"measurement": "MIC", "setting": "Candida tropicalis", "value": 12.5, "unit": "µg/mL"}, {"measurement": "MIC", "setting": "Aspergillus flavus", "value": 50, "unit": "µg/mL"}, {"measurement": "MIC", "setting": "Aspergillus niger", "value": 25, "unit": "µg/mL"}, {"measurement": "MIC", "setting": "Candida albicans", "value": 50, "unit": "µg/mL"}]}
{"smiles": "COC1=C(Sc2ccc(OC)cc2)C(=O)c2[se]c(C)nc2C1=O", "values": [{"measurement": "MIC", "setting": "Pichia kudriavzevii", "value": 12.5, "unit": "µg/mL"}, {"measurement": "MIC", "setting": "Candida tropicalis", "value": 12.5, "unit": "µg/mL"}, {"measurement": "MIC", "setting": "Aspergillus flavus", "value": 25, "unit": "µg/mL"}, {"measurement": "MIC", "setting": "Aspergillus niger", "value": 12.5, "unit": "µg/mL"}, {"measurement": "MIC", "setting": "Candida albicans", "value": 25, "unit": "µg/mL"}]}
{"smiles": "COc1ccc(NC2=CC(=O)c3[se]c(C)nc3C2=O)cc1", "values": [{"measurement": "MIC", "setting": "Pichia kudriavzevii", "value": 12.5, "unit": "µg/mL"}, {"measurement": "MIC", "setting": "Candida tropicalis", "value": 12.5, "unit": "µg/mL"}, {"measurement": "MIC", "setting": "Aspergillus flavus", "value": 12.5, "unit": "µg/mL"}, {"measurement": "MIC", "setting": "Aspergillus niger", "value": 12.5, "unit": "µg/mL"}, {"measurement": "MIC", "setting": "Candida albicans", "value": 12.5, "unit": "µg/mL"}]}
{"smiles": "COC1=C(Sc2ccc(F)cc2)C(=O)c2[se]c(C)nc2C1=O", "values": [{"measurement": "MIC", "setting": "Pichia kudriavzevii", "value": 25, "unit": "µg/mL"}, {"measurement": "MIC", "setting": "Candida tropicalis", "value": 3.2, "unit": "µg/mL"}, {"measurement": "MIC", "setting": "Aspergillus flavus", "value": 50, "unit": "µg/mL"}, {"measurement": "MIC", "setting": "Aspergillus niger", "value": 50, "unit": "µg/mL"}, {"measurement": "MIC", "setting": "Candida albicans", "value": 25, "unit": "µg/mL"}]}
{"smiles": "COC1=C(Sc2ccc(F)c(F)c2)C(=O)c2[se]c(C)nc2C1=O", "values": [{"measurement": "MIC", "setting": "Pichia kudriavzevii", "value": 6.3, "unit": "µg/mL"}, {"measurement": "MIC", "setting": "Candida tropicalis", "value": 6.3, "unit": "µg/mL"}, {"measurement": "MIC", "setting": "Aspergillus flavus", "value": 25, "unit": "µg/mL"}, {"measurement": "MIC", "setting": "Aspergillus niger", "value": 25, "unit": "µg/mL"}, {"measurement": "MIC", "setting": "Candida albicans", "value": 12.5, "unit": "µg/mL"}]}
{"smiles": "COC1=C(Sc2ccc([N+](=O)[O-])cc2)C(=O)c2[se]c(C)nc2C1=O", "values": [{"measurement": "MIC", "setting": "Pichia kudriavzevii", "value": 25, "unit": "µg/mL"}, {"measurement": "MIC", "setting": "Candida tropicalis", "value": 1.6, "unit": "µg/mL"}, {"measurement": "MIC", "setting": "Aspergillus flavus", "value": 12.5, "unit": "µg/mL"}, {"measurement": "MIC", "setting": "Aspergillus niger", "value": 50, "unit": "µg/mL"}, {"measurement": "MIC", "setting": "Candida albicans", "value": 3.2, "unit": "µg/mL"}]}
{"smiles": "COC1=C(Sc2ccc(Cl)cc2)C(=O)c2[se]c(C)nc2C1=O", "values": [{"measurement": "MIC", "setting": "Pichia kudriavzevii", "value": 25, "unit": "µg/mL"}, {"measurement": "MIC", "setting": "Candida tropicalis", "value": 12.5, "unit": "µg/mL"}, {"measurement": "MIC", "setting": "Aspergillus flavus", "value": 25, "unit": "µg/mL"}, {"measurement": "MIC", "setting": "Aspergillus niger", "value": 25, "unit": "µg/mL"}, {"measurement": "MIC", "setting": "Candida albicans", "value": 25, "unit": "µg/mL"}]}
{"smiles": "COC1=C(Sc2ccccc2)C(=O)c2[se]c(C)nc2C1=O", "values": [{"measurement": "MIC", "setting": "Pichia kudriavzevii", "value": 6.3, "unit": "µg/mL"}, {"measurement": "MIC", "setting": "Candida tropicalis", "value": 6.3, "unit": "µg/mL"}, {"measurement": "MIC", "setting": "Aspergillus flavus", "value": 12.5, "unit": "µg/mL"}, {"measurement": "MIC", "setting": "Aspergillus niger", "value": 12.5, "unit": "µg/mL"}, {"measurement": "MIC", "setting": "Candida albicans", "value": 6.3, "unit": "µg/mL"}]}
{"smiles": "Cc1nc2c([se]1)C(=O)C=C(Nc1ccccc1)C2=O", "values": [{"measurement": "MIC", "setting": "Pichia kudriavzevii", "value": 6.3, "unit": "µg/mL"}, {"measurement": "MIC", "setting": "Candida tropicalis", "value": 6.3, "unit": "µg/mL"}, {"measurement": "MIC", "setting": "Aspergillus flavus", "value": 6.3, "unit": "µg/mL"}, {"measurement": "MIC", "setting": "Aspergillus niger", "value": 6.3, "unit": "µg/mL"}, {"measurement": "MIC", "setting": "Candida albicans", "value": 6.3, "unit": "µg/mL"}]}
{"smiles": "Cc1nc2c([se]1)C(=O)C=C(Nc1ccc(F)cc1)C2=O", "values": [{"measurement": "MIC", "setting": "Pichia kudriavzevii", "value": 6.3, "unit": "µg/mL"}, {"measurement": "MIC", "setting": "Candida tropicalis", "value": 6.3, "unit": "µg/mL"}, {"measurement": "MIC", "setting": "Aspergillus flavus", "value": 12.5, "unit": "µg/mL"}, {"measurement": "MIC", "setting": "Aspergillus niger", "value": 6.3, "unit": "µg/mL"}, {"measurement": "MIC", "setting": "Candida albicans", "value": 6.3, "unit": "µg/mL"}]}
{"smiles": "Cc1nc2c([se]1)C(=O)C=C(Nc1ccc(Cl)cc1)C2=O", "values": [{"measurement": "MIC", "setting": "Pichia kudriavzevii", "value": 12.5, "unit": "µg/mL"}, {"measurement": "MIC", "setting": "Candida tropicalis", "value": 12.5, "unit": "µg/mL"}, {"measurement": "MIC", "setting": "Aspergillus flavus", "value": 12.5, "unit": "µg/mL"}, {"measurement": "MIC", "setting": "Aspergillus niger", "value": 12.5, "unit": "µg/mL"}, {"measurement": "MIC", "setting": "Candida albicans", "value": 12.5, "unit": "µg/mL"}]}
{"smiles": "Cc1nc2c([se]1)C(=O)C=C(Nc1ccc(Br)cc1)C2=O", "values": [{"measurement": "MIC", "setting": "Pichia kudriavzevii", "value": 50, "unit": "µg/mL"}, {"measurement": "MIC", "setting": "Candida tropicalis", "value": 50, "unit": "µg/mL"}, {"measurement": "MIC", "setting": "Aspergillus flavus", "value": 50, "unit": "µg/mL"}, {"measurement": "MIC", "setting": "Aspergillus niger", "value": 25, "unit": "µg/mL"}, {"measurement": "MIC", "setting": "Candida albicans", "value": 12.5, "unit": "µg/mL"}]}
{"smiles": "Cc1nc2c([se]1)C(=O)C=C(Nc1ccc(C(F)(F)F)cc1)C2=O", "values": [{"measurement": "MIC", "setting": "Pichia kudriavzevii", "value": 3.2, "unit": "µg/mL"}, {"measurement": "MIC", "setting": "Candida tropicalis", "value": 3.2, "unit": "µg/mL"}, {"measurement": "MIC", "setting": "Aspergillus flavus", "value": 25, "unit": "µg/mL"}, {"measurement": "MIC", "setting": "Aspergillus niger", "value": 12.5, "unit": "µg/mL"}, {"measurement": "MIC", "setting": "Candida albicans", "value": 25, "unit": "µg/mL"}]}
{"smiles": "Cc1nc2c([se]1)C(=O)C=C(Nc1cccc(F)c1)C2=O", "values": [{"measurement": "MIC", "setting": "Pichia kudriavzevii", "value": 6.3, "unit": "µg/mL"}, {"measurement": "MIC", "setting": "Candida tropicalis", "value": 3.2, "unit": "µg/mL"}, {"measurement": "MIC", "setting": "Aspergillus flavus", "value": 12.5, "unit": "µg/mL"}, {"measurement": "MIC", "setting": "Aspergillus niger", "value": 12.5, "unit": "µg/mL"}, {"measurement": "MIC", "setting": "Candida albicans", "value": 12.5, "unit": "µg/mL"}]}
{"smiles": "Cc1nc2c([se]1)C(=O)C=C(Nc1cc(Cl)cc(Cl)c1)C2=O", "values": [{"measurement": "MIC", "setting": "Pichia kudriavzevii", "value": 25, "unit": "µg/mL"}, {"measurement": "MIC", "setting": "Candida tropicalis", "value": 3.2, "unit": "µg/mL"}, {"measurement": "MIC", "setting": "Aspergillus flavus", "value": 12.5, "unit": "µg/mL"}, {"measurement": "MIC", "setting": "Aspergillus niger", "value": 12.5, "unit": "µg/mL"}, {"measurement": "MIC", "setting": "Candida albicans", "value": 1.6, "unit": "µg/mL"}]}
{"smiles": "Cc1nc2c([se]1)C(=O)C=C(Nc1ccc(I)cc1)C2=O", "values": [{"measurement": "MIC", "setting": "Pichia kudriavzevii", "value": 25, "unit": "µg/mL"}, {"measurement": "MIC", "setting": "Candida tropicalis", "value": 25, "unit": "µg/mL"}, {"measurement": "MIC", "setting": "Aspergillus flavus", "value": 25, "unit": "µg/mL"}, {"measurement": "MIC", "setting": "Aspergillus niger", "value": 25, "unit": "µg/mL"}, {"measurement": "MIC", "setting": "Candida albicans", "value": 25, "unit": "µg/mL"}]}
{"smiles": "Cc1ccc(NC2=CC(=O)c3[se]c(C)nc3C2=O)cc1", "values": [{"measurement": "MIC", "setting": "Pichia kudriavzevii", "value": 25, "unit": "µg/mL"}, {"measurement": "MIC", "setting": "Candida tropicalis", "value": 25, "unit": "µg/mL"}, {"measurement": "MIC", "setting": "Aspergillus flavus", "value": 12.5, "unit": "µg/mL"}, {"measurement": "MIC", "setting": "Aspergillus niger", "value": 6.3, "unit": "µg/mL"}, {"measurement": "MIC", "setting": "Candida albicans", "value": 6.3, "unit": "µg/mL"}]}
{"smiles": "Nc1nc(=O)[nH]cc1F", "note": "[FLUCYTOSINE]", "values": [{"measurement": "MIC", "setting": "Pichia kudriavzevii", "value": 50, "unit": "µg/mL"}, {"measurement": "MIC", "setting": "Candida tropicalis", "value": 12.5, "unit": "µg/mL"}, {"measurement": "MIC", "setting": "Aspergillus flavus", "value": 50, "unit": "µg/mL"}, {"measurement": "MIC", "setting": "Aspergillus niger", "value": 12.5, "unit": "µg/mL"}, {"measurement": "MIC", "setting": "Candida albicans", "value": 12.5, "unit": "µg/mL"}]}
